Here are results for 22 compounds from patent US20220289679A1, “HETEROCYCLIC COMPOUND” (Takeda Pharmaceutical Company Limited, priority 2019, published 2022).

SMILES strings stand for the structures.

The target of the assay is T1, human GCS (glucosylceramide synthase) (Homo sapiens, UniProt Q16739).
T1 construct: made in house; host or cells: Expi293F cells (transient expression; microsome fraction)
T1 sequence (Q16739 1-394): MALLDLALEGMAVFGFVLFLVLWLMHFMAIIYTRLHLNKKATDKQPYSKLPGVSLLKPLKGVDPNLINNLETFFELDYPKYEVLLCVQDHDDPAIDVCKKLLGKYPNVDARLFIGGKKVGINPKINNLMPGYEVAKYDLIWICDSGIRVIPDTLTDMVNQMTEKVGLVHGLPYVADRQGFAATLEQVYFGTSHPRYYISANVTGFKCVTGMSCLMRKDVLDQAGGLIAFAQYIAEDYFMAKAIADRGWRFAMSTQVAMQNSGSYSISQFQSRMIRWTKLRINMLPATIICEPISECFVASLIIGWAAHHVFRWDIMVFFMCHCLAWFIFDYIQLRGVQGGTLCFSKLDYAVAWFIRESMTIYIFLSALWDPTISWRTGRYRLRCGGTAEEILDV
In words: Glucosylceramide Synthase (GCS) Assay. Type of assay: biochemical. The following applies: test compound 10 μM; microsome fraction of Expi293F cells expressing human GCS; 1.7 μM UDP-glucose, 3 μM C8 ceramide; room temperature 60 min; C8 glucosylceramide by Rapidfire MS/MS; read-out: GCS enzyme inhibitory rate at 10 μM (%). As to the method:
In enzyme assay, a microsome fraction obtained by transient expression by Expi293F™ cells (catalog number: A14527, Thermo Fisher Scientific) was used as a glucosylceramide synthase source. Liposomal C8 ceramide and UDP-glucose were used as substrates. For each substrate concentration, 1.7 μM UDP-glucose, which is equal to the Km value, and 3 μM C8 ceramide were used. After the enzymatic reaction, the analysis was performed with Rapidfire MS/MS (API-4000™, SCIEX), and C8 glucosylceramide was quantified to evaluate the inhibitory activity of the test compound against glucosylceramide synthase activity.
PcDNA3.3TOPO vector (catalog number: K830001, Thermo Fisher Scientific) into which the human GCS gene was inserted was introduced into Expi293F™ Cells (catalog number: A14527, Thermo Fisher Scientific) by using ExpiFectamine™ 293 Transfection Kit (catalog number: A14525, Thermo Fisher Scientific). The cultured cells were dissolved in D-PBS (catalog number: 048-29805, Fuji Film Wako Pure Chemical Industries, Ltd.) containing 1 mM PMSF, and the solution was allowed to stand on ice for 30 minutes, and then subjected to cell disruption (homogenized). The disruption solution was centrifuged at 10,000×g for 20 minutes at 4° C., and the obtained supernatant was centrifuged at 142,400×g for 60 minutes at 4° C. The obtained precipitate was resuspended in a D-PBS solution containing 1 mM PMSF, and homogenized again to prepare as a microsome fraction. Protein quantification was performed by the CBB method.
A 1 mM compound solution prepared by dissolving the test compound in DMSO was added to a 384-well plate by 100 nL so that the final concentration of the test compound was 10 μM. Next, a substrate solution consisting of 3.4 μM UDP-glucose and 6 μM C8 ceramide was added by 5 μL, followed by an enzyme solution consisting of a 25 μg/mL microsome fraction by 5 μL. C8 ceramide was prepared from liposomes composed of 15 mol % C8 ceramide and 85 mol % dioleoyl phosphatidylcholine (1,2-dioleoyl-sn-glycero-3-phosphocholine: DOPC). The enzymatic reaction was carried out in a solution consisting of 20 mM tris-hydrochloric acid buffer (pH 7.5), 0.01% Tween 20, 0.01% bovine serum albumin and 1 mM dithiothreitol at room temperature for 60 min. Then, a solution consisting of 75% isopropanol and 1% formic acid containing 0.25 μM N-Octadecanoyl-D35-psichosine (catalog number: 1914, Matreya) as an internal standard substance was added by 60 μL to stop the enzymatic reaction. 5 μL of the centrifugal supernatant of the obtained reaction product was analyzed by Rapidfire MS/MS (Agilent Technologies) using API-4000™ (SCIEX), and the C8 glucosylceramide was quantified to evaluate the inhibitory activity of the test compound against the glucosylceramide synthase activity. The inhibitory activity of the test compound was evaluated when the C8 glucosylceramide level in the enzyme-free solution was considered as 100% inhibitory and the enzyme activity of the DMSO group in the absence of the compound was considered as 0% inhibitory.
Turning to `O=C(Nc1ccc(C(O)(C(F)F)C(F)F)nc1)c1cccn(-c2cc(F)c(F)cc2OCC(F)(F)F)c1=O` [Example 118, 1-[4,5-difluoro-2-(2,2,2-trifluoroethoxy)phenyl]-2-oxo-N-[6-(1,1,3,3-tetrafluoro-2-hydroxypropan-2-yl)pyridin-3-yl]-1,2-dihydropyridine-3-carboxamide], the inhibition at 10 µM was found to be 97%.
The same measure for `O=C(Nc1ccc(C(F)(F)F)nc1)c1cccn(-c2ccccc2OCC(F)(F)F)c1=O` [Example 20, 2-oxo-1-[2-(2,2,2-trifluoroethoxy)phenyl]-N-[6-(trifluoromethyl)pyridin-3-yl]-1,2-dihydropyridine-3-carboxamide]: 100%; for `O=C(Nc1ccc(C(O)(C(F)F)C(F)F)cc1)c1cn(C2COC2)nc(-c2ccccc2OCC(F)F)c1=O` [Example 184, 6-[2-(2,2-difluoroethoxy)phenyl]-2-(oxetan-3-yl)-5-oxo-N-[4-(1,1,3,3-tetrafluoro-2-hydroxypropan-2-yl)phenyl]-2,5-dihydropyridazine-4-carboxamide]: 100%; for `O=C(Nc1ccc(C2(O)CC2)cc1)c1cccn(-c2ccc(F)cc2OCC(F)(F)F)c1=O` [Example 69, 1-[4-fluoro-2-(2,2,2-trifluoroethoxy)phenyl]-N-[4-(1-hydroxycyclopropyl)phenyl]-2-oxo-1,2-dihydropyridine-3-carboxamide]: 99%.
Turning to `N#Cc1ccc(NC(=O)c2cccn(-c3ccc(F)cc3OCC(F)(F)F)c2=O)cc1` [Example 41, N-(4-cyanophenyl)-1-[4-fluoro-2-(2,2,2-trifluoroethoxy)phenyl]-2-oxo-1,2-dihydropyridine-3-carboxamide], the inhibition at 10 µM stood at 88%.
For `O=C(Nc1ccc(CN2CCOCC2)cc1)c1cccn(-c2ccc(F)cc2OCC(F)(F)F)c1=O` [Example 35, 1-[4-fluoro-2-(2,2,2-trifluoroethoxy)phenyl]-N-{4-[(morpholin-4-yl)methyl]phenyl}-2-oxo-1,2-dihydropyridine-3-carboxamide], the inhibition at 10 µM came out at 85%.
`O=C(Nc1ccc(C(=O)N2CCCCC2)cc1)c1cccn(-c2ccc(F)cc2OCC(F)(F)F)c1=O` [Example 43, 1-[4-fluoro-2-(2,2,2-trifluoroethoxy)phenyl]-2-oxo-N-[4-(piperidine-1-carbonyl)phenyl]-1,2-dihydropyridine-3-carboxamide]: the inhibition at 10 µM worked out at 95%.
With `N#Cc1cc(F)ccc1-n1cccc(C(=O)Nc2ccc(Oc3ccccc3)cc2)c1=O` [Example 30, 1-(2-cyano-4-fluorophenyl)-2-oxo-N-(4-phenoxyphenyl)-1,2-dihydropyridine-3-carboxamide], the inhibition at 10 µM amounted to 55%.
For `Cc1cc(C(=O)Nc2ccc(C(C)(C)O)cc2Cl)c(=O)n(-c2ccccc2OCC(F)F)n1` [Example 149, N-[2-chloro-4-(2-hydroxypropan-2-yl)phenyl]-2-[2-(2,2-difluoroethoxy)phenyl]-6-methyl-3-oxo-2,3-dihydropyridazine-4-carboxamide], the inhibition at 10 µM was 100%.
Regarding `CC(C)(O)c1ccc(NC(=O)c2cccn(-c3cccnc3OCC(F)(F)F)c2=O)cn1` [Example 120, N-[6-(2-hydroxypropan-2-yl)pyridin-3-yl]-2-oxo-2′-(2,2,2-trifluoroethoxy)-2H-[1,3′-bipyridine]-3-carboxamide], the inhibition at 10 µM was 74%.
For `Cc1cc(C(=O)Nc2ccc(C(C)(C)O)cn2)c(=O)n(-c2ccccc2OCC(F)(F)F)n1` [Example 130, N-[5-(2-hydroxypropan-2-yl)pyridin-2-yl]-6-methyl-3-oxo-2-[2-(2,2,2-trifluoroethoxy)phenyl]-2,3-dihydropyridazine-4-carboxamide], the inhibition at 10 µM turned out to be 99%.
The result for `O=C(Nc1ccc(C(O)(C(F)F)C(F)F)nc1)c1ccnn(-c2ccccc2OCC(F)(F)F)c1=O` [Example 162, 3-oxo-N-[6-(1,1,3,3-tetrafluoro-2-hydroxypropan-2-yl)pyridin-3-yl]-2-[2-(2,2,2-trifluoroethoxy)phenyl]-2,3-dihydropyridazine-4-carboxamide] reads 100%; that for `CC(C)(O)Cn1cc(C(=O)Nc2ccc(OC(F)F)cc2)c(=O)c(-c2ccccc2OCC(F)F)n1` [Example 173, 6-[2-(2,2-difluoroethoxy)phenyl]-N-[4-(difluoromethoxy)phenyl]-2-(2-hydroxy-2-methylpropyl)-5-oxo-2,5-dihydropyridazine-4-carboxamide], 95%; that for `O=C(Nc1ccc(C(O)(C(F)F)C(F)F)cc1)c1ccnn(-c2ccccc2OCC(F)(F)F)c1=O` [Example 155, 3-oxo-N-[4-(1,1,3,3-tetrafluoro-2-hydroxypropan-2-yl)phenyl]-2-[2-(2,2,2-trifluoroethoxy)phenyl]-2,3-dihydropyridazine-4-carboxamide], 100%.
In the case of `O=C(Nc1cnn(CC2CC2)c1)c1cccn(-c2ccc(F)cc2OCC(F)(F)F)c1=O` [Example 40, N-[1-(cyclopropylmethyl)-1H-pyrazol-4-yl]-1-[4-fluoro-2-(2,2,2-trifluoroethoxy)phenyl]-2-oxo-1,2-dihydropyridine-3-carboxamide], the inhibition at 10 µM was found to be 69%.
The result for `CC(C)(O)c1ccc(NC(=O)c2ccnn(-c3ccccc3OCC(F)F)c2=O)cc1` [Example 133, 2-[2-(2,2-difluoroethoxy)phenyl]-N-[4-(2-hydroxypropan-2-yl)phenyl]-3-oxo-2,3-dihydropyridazine-4-carboxamide] reads 100%; that for `CC(C)(C#N)c1ccc(NC(=O)c2cn(C3COC3)nc(-c3ccccc3OCC(F)F)c2=O)cc1` [Example 191, N-[4-(2-cyanopropan-2-yl)phenyl]-6-[2-(2,2-difluoroethoxy)phenyl]-2-(oxetan-3-yl)-5-oxo-2,5-dihydropyridazine-4-carboxamide], 100%.
On to `COc1cc(F)ccc1-n1cccc(C(=O)Nc2ccc(C(F)(F)F)cc2)c1=O` [Example 11, 1-(4-fluoro-2-methoxyphenyl)-2-oxo-N-[4-(trifluoromethyl)phenyl]-1,2-dihydropyridine-3-carboxamide], for which the inhibition at 10 µM was 88%.
With `Cc1cc(C(=O)Nc2ccc(C(C)(C)O)cc2C#N)c(=O)n(-c2ccccc2OCC(F)F)n1` [Example 154, N-[2-cyano-4-(2-hydroxypropan-2-yl)phenyl]-2-[2-(2,2-difluoroethoxy)phenyl]-6-methyl-3-oxo-2,3-dihydropyridazine-4-carboxamide], the inhibition at 10 µM amounted to 83%.
Consider `O=C(Nc1ccc(F)cc1F)c1cn(C2COC2)nc(-c2ccccc2OCC(F)F)c1=O` [Example 182, 6-[2-(2,2-difluoroethoxy)phenyl]-N-(2,4-difluorophenyl)-2-(oxetan-3-yl)-5-oxo-2,5-dihydropyridazine-4-carboxamide], for which the inhibition at 10 µM was determined as 90%.
Turning to `O=C(Nc1ccc(C2(O)CCC2)cc1)c1cccn(-c2ccccc2OCC(F)(F)F)c1=O` [Example 96, N-[4-(1-hydroxycyclobutyl)phenyl]-2-oxo-1-[2-(2,2,2-trifluoroethoxy)phenyl]-1,2-dihydropyridine-3-carboxamide], the inhibition at 10 µM is 100%.
On to `Cc1cc(C(=O)Nc2ccc(C(C)(C)O)nc2)c(=O)n(-c2ccccc2OCC(F)(F)F)n1` [Example 129, N-[6-(2-hydroxypropan-2-yl)pyridin-3-yl]-6-methyl-3-oxo-2-[2-(2,2,2-trifluoroethoxy)phenyl]-2,3-dihydropyridazine-4-carboxamide], for which the inhibition at 10 µM was 99%.
